In article PMC8268887, “Peptide/β-Peptoid Hybrids with Ultrashort PEG-Like Moieties: Effects on Hydrophobicity, Antibacterial Activity and Hemolytic Properties” (International Journal of Molecular Sciences, 2021):
Values after ≈ are worked out from the molar mass of the structure shown. Like-named read-outs stand apart in the source and are kept apart here.

Columns and labels:
[1] = Hydrophobicity by retention in analytical RP-HPLC (% MeCN at peak elution); format: physicochemical; settings: for % MeCN at Elution, Aeris Peptide: Phenomenex Aeris Peptide XB-C18 column; for % MeCN at Elution, Aeris Peptide / % MeCN at Elution, Luna Omega / % MeCN at Elution, Supelco Discovery: gradient 0→60% B during 15 min; for % MeCN at Elution, Luna: Phenomenex Luna C18(2) column, RP-HPLC gradient 0→60% B during 15 min, relative hydrophobicity; for % MeCN at Elution, Luna Omega: Phenomenex Luna Omega Polar C18 column; for % MeCN at Elution, Supelco Discovery: Supelco Discovery BIO Wide pore C18 column
Outline: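 Retention times measured on four C18 columns (Luna C18(2), Luna Omega Polar C18, Aeris Peptide XB-C18, Discovery BIO Wide pore) with MeCN–H2O/0.1% TFA, linear 0–60% B over 15 min, 0.8 mL/min, UV 220 nm. % MeCN at elution = 0.95(0.6Rt/15 min)+0.05(1−0.6Rt/15 min).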

[2] = system: E. coli ATCC 25922; format: cell-based, Escherichia coli; settings: ATCC 25922, 20 h
Outline: (§1)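 MIC, broth microdilution; MHB + 4 mg/L Mg^2+/Ca^2+; inoculum ~5 × 10^5 CFU/mL; cpd in 0.01% AcOH/0.2% BSA final; 20 h, 35 °C (±2 °C), 180 rpm shaking.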

[3] = system: E. coli NMI 3371/16; format: cell-based, Escherichia coli; settings: NMI 3371/16, 20 h
Outline: as §1

[4] = system: E. coli NMI 3898/15; format: cell-based, Escherichia coli; settings: NMI 3898/15, 20 h
Outline: as §1

[5] = system: E. faecalis ATCC 29212; format: cell-based; settings: ATCC 29212, 20 h
Outline: as §1

[6] = system: K. pneumoniae ATCC 13883; format: cell-based
Outline: as §1

[7] = system: P. aeruginosa NMI 7197/19; format: cell-based, Pseudomonas aeruginosa; settings: NMI 7197/19, 20 h
Outline: as §1

[8] = system: P. aeruginosa PAO1; format: cell-based, Pseudomonas aeruginosa; settings: PAO1, 20 h
Outline: as §1

[9] = Antiproliferative activity on HepG2 cell line (MTT assay); format: cell-based; settings: HepG2 cells; at 1280 µg/mL, value in parenthesis; read-out: HepG2 cell viability at highest concentration tested
[10] = system: HepG2 cell line ATCC HB-8065; assay: as above; format: cell-based; settings: inhibition of growth of HepG2 cells, 48 h, MTT; highest concentration tested 1280 µg/mL

NCCCC[C@H](NC(=O)CCN(Cc1ccc(F)cc1)C(=O)[C@H](CCCCN)NC(=O)CCN(Cc1ccc(F)cc1)C(=O)[C@H](CCCCN)NC(=O)CCOCCOCCOCCOCCN)C(=O)N(CCC(=O)NCCOCCOCCOCCOCCC(=O)N[C@@H](CCCCN)C(=O)N(CCC(=O)N[C@@H](CCCCN)C(=O)N(CCC(=O)N[C@@H](CCCCN)C(=O)N(CCC(=O)NCCOCCOCCOCCOCCC(N)=O)Cc1ccc(F)cc1)Cc1ccc(F)cc1)Cc1ccc(F)cc1)Cc1ccc(F)cc1 [Compound 14, H-sPEG4-[X]3-sPEG4-[X]3-sPEG4-NH2]
% MeCN at Elution, Aeris Peptide [1]: 40.4 % MeCN | % MeCN at Elution, Luna [1]: 42.4 % MeCN | % MeCN at Elution, Luna Omega [1]: 43.5 % MeCN | % MeCN at Elution, Supelco Discovery [1]: 42.5 % MeCN | MIC, EC [2]: 16 µg/mL (≈ 6.15 µM) | MIC, E. coli NMI 3371/16 [3]: 16 µg/mL (≈ 6.15 µM) | MIC, E. coli NMI 3898/15 [4]: 32 µg/mL (≈ 12.3 µM) | MIC, EF [5]: >64 µg/mL | MIC, KP ([6]; ATCC 13883, 20 h): >64 µg/mL | MIC, P. aeruginosa NMI 7197/19 [7]: >64 µg/mL | MIC, PA [8]: >64 µg/mL | viability at 48 h [9]: 44% | HepG2 IC50 [10]: 450 µg/mL

NCCCC[C@H](NC(=O)CCN(Cc1ccc(F)cc1)C(=O)[C@H](CCCCN)NC(=O)COCCNC(=O)CCN(Cc1ccc(F)cc1)C(=O)[C@H](CCCCN)NC(=O)CCN(Cc1ccc(F)cc1)C(=O)[C@H](CCCCN)NC(=O)COCCNC(=O)CCN(Cc1ccc(F)cc1)C(=O)[C@H](CCCCN)NC(=O)CCN(Cc1ccc(F)cc1)C(=O)[C@@H](N)CCCCN)C(=O)N(CCC(N)=O)Cc1ccc(F)cc1 [Compound 15, H-[X]2-sPEG1-[X]2-sPEG1-[X]2-NH2]
% MeCN at Elution, Aeris Peptide [1]: 39.0 % MeCN | % MeCN at Elution, Luna [1]: 41.1 % MeCN | % MeCN at Elution, Luna Omega [1]: 41.4 % MeCN | % MeCN at Elution, Supelco Discovery [1]: 41.2 % MeCN | MIC, EC [2]: 4 µg/mL (≈ 1.94 µM) | MIC, E. coli NMI 3371/16 [3]: 4 µg/mL (≈ 1.94 µM) | MIC, E. coli NMI 3898/15 [4]: 8 µg/mL (≈ 3.88 µM) | MIC, EF [5]: >64 µg/mL | MIC, KP [6]: 64–>64 | MIC, P. aeruginosa NMI 7197/19 [7]: >64 µg/mL | MIC, PA [8]: 32 to 64 µg/mL | viability at 48 h [9]: 26% | HepG2 IC50 [10]: 568 µg/mL

NCCCC[C@H](NC(=O)CCN(Cc1ccc(F)cc1)C(=O)[C@H](CCCCN)NC(=O)CCN(Cc1ccc(F)cc1)C(=O)[C@H](CCCCN)NC(=O)CCOCCOCCOCCOCCOCCOCCNC(=O)CCN(Cc1ccc(F)cc1)C(=O)[C@H](CCCCN)NC(=O)CCN(Cc1ccc(F)cc1)C(=O)[C@H](CCCCN)NC(=O)CCN(Cc1ccc(F)cc1)C(=O)[C@@H](N)CCCCN)C(=O)N(CCC(N)=O)Cc1ccc(F)cc1 [Compound 10, H-[X]3-sPEG6-[X]3-NH2]
% MeCN at Elution, Aeris Peptide [1]: 40.3 % MeCN | % MeCN at Elution, Luna [1]: 42.3 % MeCN | % MeCN at Elution, Luna Omega [1]: 42.8 % MeCN | % MeCN at Elution, Supelco Discovery [1]: 42.5 % MeCN | MIC, EC [2]: 4 to 8 µg/mL | MIC, E. coli NMI 3371/16 [3]: 4 to 16 µg/mL | MIC, E. coli NMI 3898/15 [4]: 8 to 32 µg/mL | MIC, EF [5]: >64 µg/mL | MIC, KP ([6]; ATCC 13883, 20 h): 64 µg/mL (≈ 29.1 µM) | MIC, P. aeruginosa NMI 7197/19 [7]: >64 µg/mL | MIC, PA [8]: 16 µg/mL (≈ 7.28 µM) | viability at 48 h [9]: 27% | HepG2 IC50 [10]: 800 µg/mL
